Test results: patent EP1608360B1, “SYNERGISTIC HEPATOPROTECTIVE COMPOSITION AND A METHOD THEREOF” (COUNCIL OF SCIENTIFIC AND INDUSTRIAL RESEARCH, priority 2003, dated 2004)
Several values for one entry are separate records, joined by “and”; a condition that tells them apart may be missing. Identical values can stand only once. Like-named read-outs stand apart in the source and are kept apart here.

Experiments:
[1] = After 72 hrs; cited from earlier work
[2] = test system: Paracetamol (APAP) induced hepatic injury; format: in vivo; conditions: Table-2
Procedure: […] Formulation is extremely safe having a therapeutic index of > 40. No mortality was recorded upto a dose of 2g-kg-1 p.o. in mice.
Table-2: Hepatoprotective potential of Andrographolide (AP) against Paracetamol (APAP) induced hepatic injury in Rodents (prophylactic). […]

[3] = test system: paracetamol (APAP) induced hepatic injury; assay: Hepatoprotective activity (in vivo) against paracetamol (APAP) induced hepatic injury in mice, prophylactic study (Table 1); conditions: 50 mg/kg p.o. + APAP
Procedure: All the list materials were administered P.O. routes in a uniform dose level of 50 mg kg-1. Formulation is extremely safe having a therapeutic index of > 40. No mortality was recorded upto a dose of 2g-kg-1 p.o. in mice.
• Fig.1 Low Power view 10 X of bridging necroses • Fig.2 High Power view 40X of bridging necroses • Fig.3 High Power view 40X of centrilobular necrosis • Fig.4 Lower Power view 10X of centrilobular necrosis • Fig.5 Effect of paracetamol on liver when given along with high doses of hepatoprotective formulations • Fig.6 Ballooning degeneration of cells along with cytoplasmic rarefaction clearing Table 1: Hepatoprotective activity (in vivo) of synergistic formulation and Silymarin agains paracetamol (APAP) induced hepatic injury in mice2. (prophylactic study)

[4] = test system: Acetaminophen (APAP) induced hepatic injury; assay: Hepatoprotective activity (in vivo), pre-treatment, diethyl-ether inhalation plus Acetaminophen (APAP), prophylactic study (Table 4); set-up: species or system Mice: Swiss albino; conditions: 50 mg/kg p.o. at 72h, 48h, 24h, 1h before diethyl-ether and 1h after APAP 200mg/kg i.p.
Procedure: Table-4: Hepatoprotective activity (in vivo) of TCA and silymarin (Pre-treatment) fed at 72h, 48h, 24h, 1h before inhalation of diethyl - ether and 1h after Acetaminophen (APAP) 200mg/kg given i.p. 6h after exposure to diethyl - ether (prophylactic study).

[5] = 6.25 mg kg^-1 + APAP, prophylactic
[6] = 12.5 mg kg^-1 + APAP, prophylactic
[7] = 25 mg kg^-1 + APAP, prophylactic
[8] = 50 mg kg^-1 + APAP, prophylactic
[9] = 50 mg kg^-1 + APAP, prophylactic, listed as Andrographolide
[10] = 50 mg kg^-1 + APAP, prophylactic, listed as andrographolide
[11] = 50 mg kg^-1 only (per se), no APAP
[12] = 100 mg kg^-1 + APAP, prophylactic

C=C1CC[C@@H]2[C@](C)(CO)[C@H](O)CC[C@@]2(C)[C@@H]1C/C=C1/C(=O)OC[C@H]1O [AP, andrographolide]
excreted, mostly by urinary excretion [1]: ~90% | Hepatic GSH (glutathione) [2, 5]: 2.85±0.19 µ mole GSH/g liver | Hepatic GSH, percent hepatoprotective activity [2, 5]: (17.40) % | Hepatic LP (lipid peroxidation) [2, 5]: 58.96±2.04 n mole MDA/g liver | Hepatic LP, percent hepatoprotective activity [2, 5]: (10.61) % | Hepatic Protein [2, 5]: 133.20±5.39 mg % | Hepatic Protein, percent hepatoprotective activity [2, 5]: (6.75) % | Serum ALP [2, 5]: 55.84±2.27 µ mole of p-nitrophenol formed /min/L | Serum ALP, percent hepatoprotective activity [2, 5]: (18.49) % | Serum Albumin [2, 5]: 3.10±0.08 g % | Serum Albumin, percent hepatoprotective activity [2, 5]: (32.84) % | Serum GOT [2, 5]: 992.69±66.36 Units | Serum GOT, percent hepatoprotective activity [2, 5]: (14.54) % | Serum GPT [2, 5]: 1224.99±63.65 Units | Serum GPT, percent hepatoprotective activity [2, 5]: (20.76) % | Serum LDH [2, 5]: 1454.48±66.02 units | Serum LDH, percent hepatoprotective activity [2, 5]: (25.45) % | Serum TG [2, 5]: 63.92±2.11 mg % | Serum TG, percent hepatoprotective activity [2, 5]: (24.17) % | Hepatic GSH (glutathione) [2, 6]: 3.78±0.19 µ mole GSH/g liver | Hepatic GSH, percent hepatoprotective activity [2, 6]: (40.19) % | Hepatic LP (lipid peroxidation) [2, 6]: 53.10±2.07 n mole MDA/g liver | Hepatic LP, percent hepatoprotective activity [2, 6]: (46.23) % | Hepatic Protein [2, 6]: 141.36±4.25 mg % | Hepatic Protein, percent hepatoprotective activity [2, 6]: (23.52) % | Serum ALP [2, 6]: 49.41±1.35 µ mole of p-nitrophenol formed /min/L | Serum ALP, percent hepatoprotective activity [2, 6]: (37.13) % | Serum Albumin [2, 6]: 3.29±0.15 g % | Serum Albumin, percent hepatoprotective activity [2, 6]: (47.02) % | Serum GOT [2, 6]: 816.54±47.10 Units | Serum GOT, percent hepatoprotective activity [2, 6]: (32.07) % | Serum GPT [2, 6]: 1051.99±46.30 Units | Serum GPT, percent hepatoprotective activity [2, 6]: (33.12) % | Serum LDH [2, 6]: 1255.65±61.32 units | Serum LDH, percent hepatoprotective activity [2, 6]: (37.14) % | Serum TG [2, 6]: 56.59±2.42 mg % | Serum TG, percent hepatoprotective activity [2, 6]: (41.39) % | Hepatic GSH (glutathione) [2, 7]: 4.15±0.15 µ mole GSH/g liver | Hepatic GSH, percent hepatoprotective activity [2, 7]: (49.26) % | Hepatic LP (lipid peroxidation) [2, 7]: 50.62±2.23 n mole MDA/g liver | Hepatic LP, percent hepatoprotective activity [2, 7]: (51.45) % | Hepatic Protein [2, 7]: 148.36±3.57 mg % | Hepatic Protein, percent hepatoprotective activity [2, 7]: (37.92) % | Serum ALP [2, 7]: 43.92±2.19 µ mole of p-nitrophenol formed /min/L | Serum ALP, percent hepatoprotective activity [2, 7]: (53.04) % | Serum Albumin [2, 7]: 3.32±0.15 g % | Serum Albumin, percent hepatoprotective activity [2, 7]: (49.25) % | Serum GOT [2, 7]: 720.76±50.62 Units | Serum GOT, percent hepatoprotective activity [2, 7]: (41.40) % | Serum GPT [2, 7]: 881.23±36.85 Units | Serum GPT, percent hepatoprotective activity [2, 7]: (45.45) % | Serum LDH [2, 7]: 1014.27±44.04 units | Serum LDH, percent hepatoprotective activity [2, 7]: (51.34) % | Serum TG [2, 7]: 51.68±2.73 mg % | Serum TG, percent hepatoprotective activity [2, 7]: (52.92) % | Hepatic GSH (glutathione) [2, 8]: 4.400±0.25 µ mole GSH/g liver | Hepatic GSH, percent hepatoprotective activity [2, 8]: (57.35) % | Hepatic LP (lipid peroxidation) [2, 8]: 47.90±1.93 n mole MDA/g liver | Hepatic LP, percent hepatoprotective activity [2, 8]: (58.35) % | Hepatic Protein [2, 8]: 155.34±3.11 mg % | Hepatic Protein, percent hepatoprotective activity [2, 8]: (52.27) % | Serum ALP [2, 8]: 40.18±2.03 µ mole of p-nitrophenol formed /min/L | Serum ALP, percent hepatoprotective activity [2, 8]: (63.88) % | Serum Albumin [2, 8]: 3.55±0.18 g % | Serum Albumin, percent hepatoprotective activity [2, 8]: (66.41) % | Serum GOT [2, 8]: 534.56±19.65 Units | Serum GOT, percent hepatoprotective activity [2, 8]: (60.14) % | Serum GPT [2, 8]: 760.73±49.35 Units | Serum GPT, percent hepatoprotective activity [2, 8]: (54.15) % | Serum LDH [2, 8]: 952.45±34.82 units | Serum LDH, percent hepatoprotective activity [2, 8]: (54.97) % | Serum TG [2, 8]: 49.22±1.78 mg % | Serum TG, percent hepatoprotective activity [2, 8]: (58.70) % | Hepatic GSH, percent hepatoprotective activity [2, 9]: 57.35% | Hepatic LP, percent hepatoprotective activity [2, 9]: 58.35% | Hepatic Protein, percent hepatoprotective activity [2, 9]: 52.27% | Serum ALP, percent hepatoprotective activity [2, 9]: 63.88% | Serum Albumin, percent hepatoprotective activity [2, 9]: 66.41% | Serum GOT, percent hepatoprotective activity [2, 9]: 60.14% | Serum GPT, percent hepatoprotective activity [2, 9]: 54.15% | Serum LDH, percent hepatoprotective activity [2, 9]: 54.97% | Serum TG, percent hepatoprotective activity [2, 9]: 58.70% | Hepatic GSH, percent hepatoprotective activity [2, 10]: 57.35% | Hepatic LP, percent hepatoprotective activity [2, 10]: 58.35% and 55.35% | Serum ALP, percent hepatoprotective activity [2, 10]: 63.88% | Serum Albumin, percent hepatoprotective activity [2, 10]: 66.41% | Serum GOT, percent hepatoprotective activity [2, 10]: 60.14% | Serum GPT, percent hepatoprotective activity [2, 10]: 54.15% | Serum LDH, percent hepatoprotective activity [2, 10]: 54.97% | Serum TG, percent hepatoprotective activity [2, 10]: 58.70% | Hepatic GSH (glutathione) [2, 11]: 6.40±0.21 µ mole GSH/g liver | Hepatic LP (lipid peroxidation) [2, 11]: 31.60±2.09 n mole MDA/g liver | Hepatic Protein [2, 11]: 182.05±10.23 mg % | Serum ALP [2, 11]: 27.72±2.71 µ mole of p-nitrophenol formed /min/L | Serum Albumin [2, 11]: 3.96±0.08 g % | Serum GOT [2, 11]: 134.92±4.25 Units | Serum GPT [2, 11]: 126.11±3.09 Units | Serum LDH [2, 11]: 181.02±10.29 units | Serum TG [2, 11]: 32.29±2.31 mg % | Hepatic GSH (glutathione) [2, 12]: 4.60±0.24 µ mole GSH/g liver | Hepatic GSH, percent hepatoprotective activity [2, 12]: (60.29) % | Hepatic LP (lipid peroxidation) [2, 12]: 45.30±2.08 n mole MDA/g liver | Hepatic LP, percent hepatoprotective activity [2, 12]: (64.95) % | Hepatic Protein [2, 12]: 146.78±5.09 mg % | Hepatic Protein, percent hepatoprotective activity [2, 12]: (34.66) % | Serum ALP [2, 12]: 44.14±2.24 µ mole of p-nitrophenol formed /min/L | Serum ALP, percent hepatoprotective activity [2, 12]: (52.40) % | Serum Albumin [2, 12]: 3.38±0.26 g % | Serum Albumin, percent hepatoprotective activity [2, 12]: (53.73) % | Serum GOT [2, 12]: 795.92±27.59 Units | Serum GOT, percent hepatoprotective activity [2, 12]: (34.12) % | Serum GPT [2, 12]: 764.37±44.32 Units | Serum GPT, percent hepatoprotective activity [2, 12]: (53.89) % | Serum LDH [2, 12]: 1256.05±33.97 units | Serum LDH, percent hepatoprotective activity [2, 12]: (37.11) % | Serum TG [2, 12]: 47.39±2.13 mg % | Serum TG, percent hepatoprotective activity [2, 12]: (63.00) %

CCCCCCCC/C=C/CCCCCCCCCCCCCC(=O)O [TCA, trans-tetracos-15-enoic acid]
Hepatic Glutathione, percent hepatoprotective activity [3]: 53.15% | Hepatic Lipid peroxidation, percent hepatoprotective activity [3]: 64.15% | Serum ALP, percent hepatoprotective activity [3]: 82.35% | Serum GOT, percent hepatoprotective activity [3]: 62.00% | Serum GPT, percent hepatoprotective activity [3]: 75.00% | Serum Triglycerides, percent hepatoprotective activity [3]: 66.45% | Hepatic Lipid peroxidation [4]: 55.48 n moles MDA/g liver | Serum ALP [4]: 52.96 µ mole of p-nitrophenol formed/min/ L | Serum Bilirubin [4]: 56.35 mg % | Serum GOT [4]: 54.92 Units | Serum GPT [4]: 57.99 Units | Serum Triglycerides [4]: 66.05 mg % | Serum ALP ([4]; listed as t-tca): 52.96 µ mole of p-nitrophenol formed
